Laboratory results as given in patent US5652222A, “Selective inhibition of leukemic cell proliferation by bcr-abl antisense oligonucleotides” (Temple University-of The Commonwealth System of Higher …, priority 1993, dated 1997).
“Also recorded” adds a separate entry of the source.

Key:
CML chronic phase = conditions: cited from earlier work; for control of the excessive granulopoiesis of CML: human, in vivo; for median survival: standard approach to treatment of CML chronic phase
[1] = test system: nucleic acid synthesis in both normal and leukemic cells; conditions: cited from earlier work
chronic phase CML = conditions: cited from earlier work
[2] = test system: cells of CML patients in blast crisis, K-28 (b3a2) type junction; experiment: Colony formation of CML blast crisis patient cells expressing the b3a2 (K-28) junction; assay type: cell-based, human; conditions: for Number of Colonies, Antisense-treated: conditions of Example 1
Excerpt: To identify CML blast crisis patients carrying the second common type junction, in which bcr exon 3 is juxtaposed to c-abl exon 2, total RNA derived from cells of CML patients in blast crisis was reverse-transcribedwith synthetic primers. The 3' primer (SEQ ID NO:10) was complementary to 22 nucleotides of c-abl. exon 2. The 5' primer was the 22-mer GTCATCGTCCACTCAGCCACTG (SEQ ID NO:12) complementary to 22 nucleotides of bcr exon 3. The RNA was amplified by polymerase chain reaction according to Example 1. The amplification products were then hybridized with the synthetic 18-mer oligonucleotide GAAGGGCTTT TGAACTCT (SEQ ID NO:6), which is complementary to the b3a2 junction. After cloning of breakpoints in two patients, sequence analysis of several clones identified the b3a2 junction as precisely corresponding to the K-28 breakpoint shown in FIG. 3. (SEQ ID NO:4).
Utilizing the culture condition and oligomer treatment conditions of Example 1, cells were exposed to either no oligomer (FIG. 4A), the 18-nucleotide synthetic oligomer GAAGTGCTGT TGAACTCT (SEQ ID NO:5) partially complementary to the b3a2 junction, containing 9 nucleotides corresponding to bcr and 9 nucleotides corresponding to c-abl but with two mismatches (FIG. 4B); or the 18-nucleotide synthetic oligomer GAAGGGCTTT TGAACTCT (SEQ ID NO:6) completely complementary to the same bcr-abl junction (FIG. 4C).

BV173 cells (b2/a2) = experiment: Proliferation of BV173 cells expressing b2a2 junction; assay type: cell-based, human; conditions: in comparison to untreated control cells (FIG. 7)
Method: Amplification of the bcr-abl junction with a 5' primer corresponding to bcr exon 2, and a 3' primer corresponding to abl exon 2, followed by hybridization to an 18-mer specific for the b2/a2 or the b3/a2 junction identified the b2/a2 breakpoint in these cells (data not shown).
The sensitivity of the BV173 cells to b2/a2 antisense phosphorothioate oligodeoxynucleotides was assessed. Phosphorothioate oligodeoxynucleotides were prepared on either an Applied Biosystems Model 380B or 390Z Automated Synthesis instrument using conventional phosphoramidite monomers and manufacturer-recommended procedures, which included substitution of tetraethylthiuran (or an equivalent sulfur-donor reagent) for iodine-water-pyridine, […] reversed-phase preparative chromatography, detritylation, and obtaining the final product in the form of its sodium salt, all according to previously published methodology: Zon and Stec, in Oligonucleotides and Analogues A Practical Approach, F. Eckstein, Ed. (Oxford Univerisity Press, Oxford 1991), pp. 87-108; Zon and Geiser, Anti-Cancer Drug Design 6, 539 (1991); Vu and Hirschenbein, Tetrahedron Lett. 32, 3005-3008 (1991).
BV173 cells were cultured in the presence of phosphorothioate b2/a2 antisense 26-mer CGCTGAAGGG CTTCTTCCT ATTGAT (SEQ ID NO:29), the phosphorothioate sense sequence ATCAATAAGGAAGCCCTTCAGCG (SEQUENCE ID NO:34), or the b3/a2 (SEQ ID NO:31) or b1/a2 (SEQ ID N0:33) phosphorothioate antisense 26-mer. […] The sense oligomer SEQ ID NO:34 gave no inhibition (FIG. 7, -.largecircle.-) in comparison to untreated control cells (FIG. 7, -.quadrature.-).

[3] = alpha-interferon treated CML patients

Compound | control of the excessive granulopoiesis of CML (CML chronic phase) | median survival (CML chronic phase) | inhibition of nucleic acid synthesis [1] | inhibition of proliferation of BV173 cells (BV173 cells (b2/a2)) | also measured
CS(=O)(=O)OCCCCOS(C)(=O)=O [busulfan] | useful in the control of the excessive granulopoiesis of CML | about 47 months | inhibit nucleic acid synthesis in both normal and leukemic cells; also recorded: inhibit nucleic acid synthesis both in normal and leukemic cells |  | 
NC(=O)NO [hydroxyurea] | useful in the control of the excessive granulopoiesis of CML | about 47 months | inhibit nucleic acid synthesis in both normal and leukemic cells; also recorded: inhibit nucleic acid synthesis both in normal and leukemic cells |  | 
Alpha-interferon |  |  |  |  | patients with normalization of the blood count (chronic phase CML; 3-9 million units intramuscularly each day, chronic phase CML): about three quarters; side effects (chronic phase CML; CML patients): fever, anorexia, muscle and bone pain, depression, and often immune thrombocytopenia; patients with a decrease in Ph1-chromosome-containing metaphases (chronic phase CML; [3]): more than one third; treated patients having fewer than 5% Ph1-positive cells (chronic phase CML; [3]): about 15%; specificity of effect on leukemic clone (chronic phase CML; human, in vivo): non-specific, as indicated by the persistence of Ph^1 leukemic cells and the inhibition of normal hematopoietic cell growth
SEQ ID NO:6: 18-nucleotide synthetic oligomer GAAGGGCTTT TGAACTCT completely complementary to the b3a2 (K-28) junction (antisense GAAGGGCTTTTGAACTCT; further chemistry not given here) |  |  |  |  | Number of Colonies, Antisense-treated ([2]; Table 2, patient 1, untreated 278 ± 28): 102 ± 14 colonies; Number of Colonies, Antisense-treated ([2]; Table 2, patient 2, untreated 182 ± 18): 68 ± 12 colonies; % Inhibition ([2]; Table 2, patient 2, number of colonies vs untreated): 63%
SEQ ID NO:31: b3/a2 phosphorothioate antisense 26-mer CGCTGAAGGGCTT TTGAA&TCTGCTT (antisense CGCTGAAGGGCTTTTGAACTCTGCTT; all phosphorothioate, sugars by position and methylation of C not given here) |  |  |  | Only the b2/a2 antisense oligodeoxynucleotide inhibited the proliferation of BV173 cells | 
SEQ ID NO:33: b1/a2 phosphorothioate antisense 26-mer CGCTGAAGGGCTT CTGCGTCTCCATG (antisense CGCTGAAGGGCTTCTGCGTCTCCATG; all phosphorothioate, sugars by position and methylation of C not given here) |  |  |  | Only the b2/a2 antisense oligodeoxynucleotide inhibited the proliferation of BV173 cells | 
